Source: US10653698B2, “Methods of improving myocardial performance in Fontan patients using udenafil compositions” (priority 2014, dated 2020)

Assays:
[1] = test system: adolescents with single ventricle physiology after Fontan palliation; test: Echocardiographic assessment of ventricular performance (blood pool MPI, tissue Doppler MPI, average isovolumic contraction and relaxation); type: in vivo, human; parameters: Average Isovolumic Contraction, Baseline measurement / Average Isovolumic Contraction, Follow-up measurement: unit not given here; conditions: for Average Isovolumetric Relaxation, Follow-up measurement / Average Isovolumetric Relaxation, Baseline measurement: in ms (unit assumed)
Text: Ventricular performance and cardiac contractility are important measurements that can reveal impairment of cardiovascular health before overt heart failure is present. Ventricular performance can be assessed using echocardiographic methods and quantified via a myocardial performance index or MPI. MPI is an index that combines systolic and diastolic function. Specifically, MPI is defined as the sum of isovolumic contraction time and isovolumic relaxation time divided by the ejection time.
Various versions of MPI are known in the art, and each version of MPI may be used to assess ventricular performance. For instance, MPI indices may include but are not limited to blood pool MPI, tissue doppler MPI, average isovolumetric contraction, and average isovolumetric relaxation.
The primary outcome of ventricular performance with assessed using echocardiographic methods and measured according to a myocardial performance Index (MPI). The MPI is a ventricular geometry-independent measure of combined systolic and diastolic ventricular performance (Charles S. Kleinman et al, 2008—Health and Fitness). It is obtained by indexing the sum of isovolumetric contraction and relaxation time to ejection time.
Table 18 summarizes results for the key outcome from the Echocardiographic Assessment of Ventricular Performance—Blood Pool MPI. Out of the 30 subjects enrolled in the treatment arms of the trial, 27 subjects had paired measurements. The structure of the table is similar to the one for exercise variables.
Tables 19-21 and FIGS. 9-15 report similar results for three other versions of MPI: Tissue Doppler MPI, and Average Isovolumetric Contraction and Relaxation.

[2] = Pharmacokinetic testing, non-compartmental analysis of plasma concentrations; type: in vivo, human
Procedure: NONMEM version 7.2, R, PDxPOP® 5, Xpose, and Phoenix WinNonlin was used for the pharmacokinetic analysis.
Pharmacokinetic analysis was performed on Fontan patients receiving udenafil. […] Plasma concentrations were determined at various time points and non-compartmental analysis was performed in patients and stratified by dosing regimens.

[3] = 87.5 mg q12 h and 125 mg q24 h cohorts compared to 37.5 mg q12 h or q24 h cohorts

For `CCCOc1ccc(S(=O)(=O)NCCC2CCCN2C)cc1-c1nc2c(CCC)nn(C)c2c(=O)[nH]1` (centres unmarked) [udenafil], the “Average Isovolumetric Relaxation, Difference, FU − BL” value ([1]; 37.5 mg daily, N 5) was 9.0 ± 11.5, the “Average Isovolumic Contraction, Difference, FU − BL” value ([1]; 37.5 mg daily, N 5) was −3.5 ± 50.0 and the “Average Isovolumic Contraction, Follow-up measurement” value ([1]; 37.5 mg daily, N 5) was 86.4 ± 22.7. The “Blood Pool MPI, Difference, FU − BL” value ([1]; 37.5 mg daily, N 5) was −0.052 ± 0.166, the “Blood Pool MPI, Follow-up measurement” value ([1]; 37.5 mg daily, N 5) was 0.504 ± 0.187 and the “Tissue Doppler MPI, Difference, FU − BL” value ([1]; 37.5 mg daily, N 5) was −0.052 ± 0.398. The “Tissue Doppler MPI, Follow-up measurement” value ([1]; 37.5 mg daily, N 5) was 0.637 ± 0.206, the “Average Isovolumetric Relaxation, Follow-up measurement” value ([1]; 37.5 mg daily, N 5) was 94.0 ± 26.7 and the “Average Isovolumic Contraction, Baseline measurement” value ([1]; 37.5 mg daily, N 6) was 99.2 ± 50.7. For the same compound, the “Blood Pool MPI, Baseline measurement” value ([1]; 37.5 mg daily, N 6) was 0.537 ± 0.304, the “Tissue Doppler MPI, Baseline measurement” value ([1]; 37.5 mg daily, N 6) was 0.701 ± 0.417 and the “Average Isovolumetric Relaxation, Baseline measurement” value ([1]; 37.5 mg daily, N 6) was 83.8 ± 16.1. For the same compound, the “Average Isovolumetric Relaxation, Difference, FU − BL” value ([1]; 37.5 mg twice daily, N 6) was 0.8 ± 21.2, the “Average Isovolumic Contraction, Baseline measurement” value ([1]; 37.5 mg twice daily, N 6) was 109.4 ± 51.1 and the “Average Isovolumic Contraction, Difference, FU − BL” value ([1]; 37.5 mg twice daily, N 6) was −5.8 ± 25.7. The “Average Isovolumic Contraction, Follow-up measurement” value ([1]; 37.5 mg twice daily, N 6) was 103.6 ± 32.4, the “Blood Pool MPI, Baseline measurement” value ([1]; 37.5 mg twice daily, N 6) was 0.496 ± 0.150 and the “Blood Pool MPI, Difference, FU − BL” value ([1]; 37.5 mg twice daily, N 6) was −0.003 ± 0.102. For the same compound, the “Blood Pool MPI, Follow-up measurement” value ([1]; 37.5 mg twice daily, N 6) was 0.494 ± 0.087, the “Tissue Doppler MPI, Baseline measurement” value ([1]; 37.5 mg twice daily, N 6) was 0.818 ± 0.361 and the “Tissue Doppler MPI, Difference, FU − BL” value ([1]; 37.5 mg twice daily, N 6) was −0.089 ± 0.142. The “Tissue Doppler MPI, Follow-up measurement” value ([1]; 37.5 mg twice daily, N 6) was 0.729 ± 0.230, the “Average Isovolumetric Relaxation, Baseline measurement” value ([1]; 37.5 mg twice daily, N 6) was 100.8 ± 32.3 and the “Average Isovolumetric Relaxation, Follow-up measurement” value ([1]; 37.5 mg twice daily, N 6) was 101.6 ± 40.0. The “Average Isovolumetric Relaxation, Difference, FU − BL” value ([1]; 87.5 mg daily, N 6) was −6.9 ± 10.1, the “Average Isovolumic Contraction, Baseline measurement” value ([1]; 87.5 mg daily, N 6) was 122.4 ± 36.7 and the “Average Isovolumic Contraction, Difference, FU − BL” value ([1]; 87.5 mg daily, N 6) was −7.4 ± 26.5. For the same compound, the “Average Isovolumic Contraction, Follow-up measurement” value ([1]; 87.5 mg daily, N 6) was 115.0 ± 32.9, the “Blood Pool MPI, Baseline measurement” value ([1]; 87.5 mg daily, N 6) was 0.588 ± 0.158 and the “Blood Pool MPI, Difference, FU − BL” value ([1]; 87.5 mg daily, N 6) was −0.076 ± 0.144. The “Blood Pool MPI, Follow-up measurement” value ([1]; 87.5 mg daily, N 6) was 0.512 ± 0.163, the “Tissue Doppler MPI, Baseline measurement” value ([1]; 87.5 mg daily, N 6) was 0.804 ± 0.118 and the “Tissue Doppler MPI, Difference, FU − BL” value ([1]; 87.5 mg daily, N 6) was −0.089 ± 0.131. The “Tissue Doppler MPI, Follow-up measurement” value ([1]; 87.5 mg daily, N 6) was 0.716 ± 0.142, the “Average Isovolumetric Relaxation, Baseline measurement” value ([1]; 87.5 mg daily, N 6) was 93.4 ± 11.0 and the “Average Isovolumetric Relaxation, Follow-up measurement” value ([1]; 87.5 mg daily, N 6) was 86.4 ± 15.3. The “Average Isovolumetric Relaxation, Difference, FU − BL” value ([1]; 87.5 mg twice daily, N 4) was 5.2 ± 12.6, the “Average Isovolumic Contraction, Baseline measurement” value ([1]; 87.5 mg twice daily, N 4) was 84.1 ± 20.3 and the “Average Isovolumic Contraction, Difference, FU − BL” value ([1]; 87.5 mg twice daily, N 4) was 4.1 ± 12.1. The “Tissue Doppler MPI, Baseline measurement” value ([1]; 87.5 mg twice daily, N 4) was 0.540 ± 0.019, the “Tissue Doppler MPI, Difference, FU − BL” value ([1]; 87.5 mg twice daily, N 4) was 0.060 ± 0.068 and the “Average Isovolumetric Relaxation, Baseline measurement” value ([1]; 87.5 mg twice daily, N 4) was 72.3 ± 10.5. For the same compound, the “Blood Pool MPI, Baseline measurement” value ([1]; 87.5 mg twice daily, N 5) was 0.548 ± 0.136, the “Blood Pool MPI, Difference, FU − BL” value ([1]; 87.5 mg twice daily, N 5) was −0.118 ± 0.090 and the “Average Isovolumic Contraction, Follow-up measurement” value ([1]; 87.5 mg twice daily, N 6) was 83.8 ± 26.4. The “Blood Pool MPI, Follow-up measurement” value ([1]; 87.5 mg twice daily, N 6) was 0.410 ± 0.078, the “Tissue Doppler MPI, Follow-up measurement” value ([1]; 87.5 mg twice daily, N 6) was 0.638 ± 0.168 and the “Average Isovolumetric Relaxation, Follow-up measurement” value ([1]; 87.5 mg twice daily, N 6) was 82.4 ± 11.4. The “Average Isovolumetric Relaxation, Difference, FU − BL” value ([1]; 125 mg daily, N 5) was −5.4 ± 11.1, the “Average Isovolumic Contraction, Difference, FU − BL” value ([1]; 125 mg daily, N 5) was −8.0 ± 24.6 and the “Average Isovolumic Contraction, Follow-up measurement” value ([1]; 125 mg daily, N 5) was 150.5 ± 60.5. The “Blood Pool MPI, Difference, FU − BL” value ([1]; 125 mg daily, N 5) was −0.054 ± 0.180, the “Blood Pool MPI, Follow-up measurement” value ([1]; 125 mg daily, N 5) was 0.696 ± 0.202 and the “Tissue Doppler MPI, Difference, FU − BL” value ([1]; 125 mg daily, N 5) was −0.074 ± 0.141. The “Tissue Doppler MPI, Follow-up measurement” value ([1]; 125 mg daily, N 5) was 0.822 ± 0.271, the “Average Isovolumetric Relaxation, Follow-up measurement” value ([1]; 125 mg daily, N 5) was 96.8 ± 17.4 and the “Average Isovolumic Contraction, Baseline measurement” value ([1]; 125 mg daily, N 6) was 152.4 ± 64.4. For the same compound, the “Blood Pool MPI, Baseline measurement” value ([1]; 125 mg daily, N 6) was 0.728 ± 0.155, the “Tissue Doppler MPI, Baseline measurement” value ([1]; 125 mg daily, N 6) was 0.861 ± 0.323 and the “Average Isovolumetric Relaxation, Baseline measurement” value ([1]; 125 mg daily, N 6) was 99.5 ± 25.0. For the same compound, the “Average Isovolumetric Relaxation, Difference, FU − BL” value ([1]; All subjects, N 26) was 0.1 ± 14.4, the “Average Isovolumic Contraction, Difference, FU − BL” value ([1]; All subjects, N 26) was −4.6 ± 28.3 and the “Tissue Doppler MPI, Difference, FU − BL” value ([1]; All subjects, N 26) was −0.056 ± 0.198. For the same compound, the “Blood Pool MPI, Difference, FU − BL” value ([1]; All subjects, N 27) was −0.059 ± 0.134, the “Average Isovolumic Contraction, Baseline measurement” value ([1]; All subjects, N 28) was 115.6 ± 50.5 and the “Average Isovolumic Contraction, Follow-up measurement” value ([1]; All subjects, N 28) was 107.1 ± 41.3. For the same compound, the “Blood Pool MPI, Follow-up measurement” value ([1]; All subjects, N 28) was 0.517 ± 0.165, the “Tissue Doppler MPI, Baseline measurement” value ([1]; All subjects, N 28) was 0.760 ± 0.299 and the “Tissue Doppler MPI, Follow-up measurement” value ([1]; All subjects, N 28) was 0.707 ± 0.201. For the same compound, the “Average Isovolumetric Relaxation, Baseline measurement” value ([1]; All subjects, N 28) was 91.2 ± 22.2, the “Average Isovolumetric Relaxation, Follow-up measurement” value ([1]; All subjects, N 28) was 92.0 ± 23.8 and the “Blood Pool MPI, Baseline measurement” value ([1]; All subjects, N 29) was 0.581 ± 0.197. The “Improvement in Blood Pool MPI” value ([1]; some patients, baseline to day 5) was at most 21.5%, the AUCτ [2, 3] was “significantly increased” and the Cmax [2, 3] was “significantly increased”. The AUC0-24 ([2]; 87.5 mg q12 h cohort among all regimens tested) was “highest”, the Cmax ([2]; 87.5 mg q12 h cohort compared to its q24 h counterpart) was “increased” and the AUC0-24 ([2]; 125 mg q24 h cohort compared to 37.5 mg q24 h cohort) was “significantly increased”. For the same compound, the “ke, T1/2, or Tmax” value ([2]; among all 5 tested dosing regimens) was “no statistically significant difference” and the “CL/F or V/F” value ([2]; among dosing regimens, except between 37.5 mg q24 h and 87.5 mg q12 h) was “No significant difference”.
